In US20250257098A1, “NOVEL SST4 SELECTIVE AGONISTS AS NON-OPIOID ANALGESICS” (KØBENHAVNS UNIVERSITET, priority 2022, published 2025):

Assays:
[1] = target: T1, human somatostatin receptor SST4 (Homo sapiens, UniProt P31391); format: cell-based
T1 construct: expressed in transfected cells; host or cells: HTLA cells

[2] = target: T2, human somatostatin receptor SST1 (Homo sapiens, UniProt P30872); format: cell-based
T2 construct: expressed in transfected cells; host or cells: HTLA cells

[3] = target: T3, human somatostatin receptor SST2 (Homo sapiens, UniProt P30874); format: cell-based
T3 construct: expressed in transfected cells; host or cells: HTLA cells
T3 sequence (P30874 whole entry): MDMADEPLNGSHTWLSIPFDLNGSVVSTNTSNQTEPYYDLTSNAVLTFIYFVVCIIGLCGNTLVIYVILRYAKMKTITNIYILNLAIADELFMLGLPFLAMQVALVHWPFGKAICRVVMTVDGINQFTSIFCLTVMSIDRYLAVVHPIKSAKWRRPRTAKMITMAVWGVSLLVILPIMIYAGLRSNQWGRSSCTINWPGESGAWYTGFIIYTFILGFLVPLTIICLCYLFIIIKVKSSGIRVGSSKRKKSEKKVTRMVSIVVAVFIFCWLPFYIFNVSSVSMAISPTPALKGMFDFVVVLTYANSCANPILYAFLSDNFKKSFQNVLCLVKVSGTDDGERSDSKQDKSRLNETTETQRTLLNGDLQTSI

[4] = target: T4, human somatostatin receptor SST3 (Homo sapiens, UniProt P32745); format: cell-based
T4 construct: expressed in transfected cells; host or cells: HTLA cells
T4 sequence (P32745 whole entry): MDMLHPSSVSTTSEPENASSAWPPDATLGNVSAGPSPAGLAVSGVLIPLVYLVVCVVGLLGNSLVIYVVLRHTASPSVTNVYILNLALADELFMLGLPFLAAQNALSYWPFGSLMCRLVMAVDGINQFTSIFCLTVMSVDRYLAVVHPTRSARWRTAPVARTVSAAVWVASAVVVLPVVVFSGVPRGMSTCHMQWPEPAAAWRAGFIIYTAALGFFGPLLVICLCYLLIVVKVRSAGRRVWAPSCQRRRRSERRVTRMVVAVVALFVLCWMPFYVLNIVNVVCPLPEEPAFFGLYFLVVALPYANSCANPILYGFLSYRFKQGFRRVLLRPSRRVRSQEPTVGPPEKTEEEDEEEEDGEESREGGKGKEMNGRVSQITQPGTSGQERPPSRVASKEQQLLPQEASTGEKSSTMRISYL

[5] = target: T5, human somatostatin receptor SST5 (Homo sapiens, UniProt P35346); format: cell-based
T5 construct: expressed in transfected cells; host or cells: HTLA cells
T5 sequence (P35346 whole entry): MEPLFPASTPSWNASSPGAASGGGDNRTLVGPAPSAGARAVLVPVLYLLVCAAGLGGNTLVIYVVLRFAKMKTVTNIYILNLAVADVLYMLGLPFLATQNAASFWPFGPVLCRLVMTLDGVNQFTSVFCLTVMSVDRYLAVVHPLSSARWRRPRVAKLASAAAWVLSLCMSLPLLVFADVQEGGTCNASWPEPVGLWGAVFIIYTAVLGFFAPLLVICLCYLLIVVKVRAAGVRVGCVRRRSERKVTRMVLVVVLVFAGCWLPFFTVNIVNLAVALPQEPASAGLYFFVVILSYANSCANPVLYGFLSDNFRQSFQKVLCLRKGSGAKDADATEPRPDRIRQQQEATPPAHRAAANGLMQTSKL

[6] = system: mouse model of post-surgical pain; design: species or system mice; conditions: in vivo
[7] = system: model of chronic neuropathic pain (spared nerve injury, SNI); design: species or system C57BL/6NRj mice; conditions: mouse, in vivo
[8] = system: LPS-stimulated mouse macrophages; format: cell-based, BALB/c mice

T1 sequence (P31391 whole entry): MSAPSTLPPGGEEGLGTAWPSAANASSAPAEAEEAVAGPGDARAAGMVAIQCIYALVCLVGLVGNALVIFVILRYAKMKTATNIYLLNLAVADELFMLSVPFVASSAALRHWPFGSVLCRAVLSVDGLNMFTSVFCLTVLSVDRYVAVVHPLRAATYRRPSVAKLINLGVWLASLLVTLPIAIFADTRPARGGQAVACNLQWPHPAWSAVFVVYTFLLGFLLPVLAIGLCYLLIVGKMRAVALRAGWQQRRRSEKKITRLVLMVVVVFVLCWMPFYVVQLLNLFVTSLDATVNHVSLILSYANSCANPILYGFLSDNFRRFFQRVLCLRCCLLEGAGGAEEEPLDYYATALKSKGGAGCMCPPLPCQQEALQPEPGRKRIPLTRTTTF
T2 sequence (P30872 whole entry): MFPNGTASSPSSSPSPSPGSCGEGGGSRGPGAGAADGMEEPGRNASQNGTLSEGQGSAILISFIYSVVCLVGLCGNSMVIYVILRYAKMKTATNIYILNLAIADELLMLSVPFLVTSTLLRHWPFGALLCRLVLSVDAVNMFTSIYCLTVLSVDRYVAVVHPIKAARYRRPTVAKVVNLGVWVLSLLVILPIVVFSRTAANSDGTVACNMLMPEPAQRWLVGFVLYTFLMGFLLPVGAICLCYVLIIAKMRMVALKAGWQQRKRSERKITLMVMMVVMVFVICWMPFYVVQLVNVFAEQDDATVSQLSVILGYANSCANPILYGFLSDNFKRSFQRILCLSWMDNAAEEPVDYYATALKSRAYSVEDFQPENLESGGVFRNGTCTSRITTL

PVCWKFGCPL [HSH-109, PVCwKFGCOL]
apparent potency at SST4 [1]: low nanomolar range
potency compared with Cont-Ro1 [1]: more potent
selectivity for SST4 compared with Cont-Ro1 [1]: more selective for SST4 than Cont-Ro1
apparent potency at SST1 [2]: low micromolar range
activation of SST2 [3]: did not significantly activate
activation of SST3 [4]: did not significantly activate
activation of SST5 [5]: did not significantly activate
area under the curve larger than for Cont-Ro1 [6]: 39%
duration of effect compared with Cont-Ro1 [6]: longer lasting
duration of effect versus morphine positive control [6]: longer lasting than the morphine positive control
effect level compared with Cont-Ro1 [6]: tendency for a higher effect level of HSH-109 over Cont-Ro1
expected efficacy [6]: expected to be fully efficacious
reduction of hypersensitivity [6]: robust reduction of hypersensitivity
reduction of mechanical hypersensitivity [7]: very robust reduction of mechanical hypersensitivity
reduction of MCP1 levels [8]: ~47%
reduction of TNFα levels [8]: ~62%
